From patent US10010547B2 (CASCADIAN THERAPEUTICS, INC., priority 2014, dated 2018)
Read-outs that look alike come from different tables or passages of the source.

Columns and labels:
Chk-1 kinase = Chk-1 kinase (Homo sapiens (Human), UniProt O14757); experiment: Chk-1 Kinase Inhibiting Activity (33P-ATP filter assay, CHKtide substrate); assay type: biochemical
Description: Chk-1 Kinase Inhibiting Activity
The compounds of the invention were tested for activity against Chk-1 kinase using the materials and protocols set out below.
Base Reaction buffer: 20 mM Hepes (pH 7.5), 10 mM MgCl2, 1 mM EGTA, 0.02% Brij35, 0.02 mg/ml BSA, 0.1 mM Na3VO4, 2 mM DTT, 1% DMSO
*Required cofactors are added individually to each kinase reaction
(i) Prepare indicated substrate in freshly prepared Base Reaction Buffer
(ii) Deliver any required cofactors to the substrate solution above
(iii) Deliver indicated kinase into the substrate solution and gently mix
(iv) Deliver compounds in DMSO into the kinase reaction mixture
(v) Deliver ^33P-ATP (specific activity 0.01 μCi/μl final) into the reaction mixture to initiate the reaction.
(vi) Incubate kinase reaction for 120 minutes at room temperature
(vii) Reactions are spotted onto P81 ion exchange paper (Whatman #3698-915)
(viii) Wash filters extensively in 0.1% phosphoric acid.
(ix) Dry filters and measure counts in scintillation counter
Recombinant full length construct, N-terminal GST tagged, purified from insect cells.
No special measures were taken to activate this kinase.
Final concentration in assay=0.5 nM
Peptide sequence: [[…]]
Final concentration in assay=20 μM
No additional cofactors are added to the reaction mixture
From the results obtained by following the above protocol, the IC50 values against Chk-1 kinase of each of the compounds of Examples 1-153 were determined and these are shown in Table 3.

MIA PaCa-2 cells = experiment: Gemcitabine Combination Cell Assay (Cell Titer Glo); assay type: cell-based; conditions: MIA PaCa-2 cells, 72 h; for IC50: Homo sapiens, Chk1 inhibitor alone, read-out: Chk1 IC50; for 10xLS: approximate concentration of Chk1 inhibitor that results in a 10-fold reduction in the IC50 of gemcitabine alone; for 2xLS: approximate concentration of Chk1 inhibitor that results in a two-fold reduction in the IC50 of gemcitabine alone
Description: Gemcitabine Combination Cell Assay
Exponentially growing MIA PaCa-2 (ATCC CRL-1420) cells are treated with trypsin to remove cells from the plate surface. Approximately 10,000 cells/well are plated in 96 well plates in RPMI containing 10% fetal bovine serum, 1% sodium pyruvate and 1% L-GlutaMax. Cells are allowed to adhere to the plate surface overnight. Serial half-log dilutions of Chk1 inhibitor test compounds and gemcitabine are made with a final highest concentration of 3000 nM and 100 nM, respectively. Chk1 inhibitors and gemcitabine are combined so that each concentration of Chk1 inhibitor is added to each concentration of gemcitabine. Each drug is also tested as a single agent. Drugs are added to adherent cells (in duplicate) and incubated for 72 h. At 72 h the cells are treated with Promega Cell Titer Glo reagent for approximately 15 minutes. Luminescence (relative light units, RLU) is recorded using a BMG Polarstar Omega plate reader. The single agent concentration that results in a 50% reduction in total signal (IC50) is calculated using PRISM software and a four-parameter non-linear regression curve fit. For combination studies the RLUs are plotted using PRISM on an XY plot with the gemcitabine concentration on the X axis and RLU on the Y axis. The RLU for each concentration of Chk1 inhibitor is plotted as a function of gemcitabine concentration. The IC50 for gemcitabine alone and at each concentration of Chk1 is determined using a four-parameter non-linear regression curve fit. The approximate concentration of Chk1 inhibitor that results in a two and ten-fold reduction in the IC50 of gemcitabine alone is calculated as an indication of synergistic potency.
From the results obtained by following the above protocol, the IC50 values against MIAPaca-2 cells of the Chk1 inhibitor alone (Chk1 IC50), the approximate concentration of Chk1 inhibitor that results in a two-fold (2×LS) and a 10-fold (10×LS) reduction in the IC50 of gemcitabine alone of each of the compounds of Examples 1-154 are shown in Table 4.

[1] = against Chk-1 kinase, read-out: IC50

Sequence of Chk-1 kinase (O14757 whole entry): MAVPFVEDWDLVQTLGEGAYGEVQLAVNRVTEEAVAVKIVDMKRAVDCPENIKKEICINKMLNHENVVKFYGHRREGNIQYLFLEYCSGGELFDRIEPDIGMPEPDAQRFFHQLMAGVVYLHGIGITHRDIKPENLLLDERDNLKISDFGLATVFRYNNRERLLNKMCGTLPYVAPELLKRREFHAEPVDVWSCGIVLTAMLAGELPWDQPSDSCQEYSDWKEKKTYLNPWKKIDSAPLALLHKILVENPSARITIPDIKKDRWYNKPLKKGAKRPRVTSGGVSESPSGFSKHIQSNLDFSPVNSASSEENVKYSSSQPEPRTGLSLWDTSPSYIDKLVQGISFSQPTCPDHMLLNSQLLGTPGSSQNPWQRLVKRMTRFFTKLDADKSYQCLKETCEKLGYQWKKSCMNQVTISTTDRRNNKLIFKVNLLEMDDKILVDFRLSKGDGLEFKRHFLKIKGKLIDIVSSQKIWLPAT

SMILES	IC50 (Chk-1 kinase; [1])	IC50 (MIA PaCa-2 cells)	10xLS (MIA PaCa-2 cells)	2xLS (MIA PaCa-2 cells)	IC50 (Chk-1 kinase)
COc1cc(CNc2ccccn2)ccc1-c1cc(Nc2cnc(C#N)cn2)n[nH]1 [Example 31, 5-[[5-[2-methoxy-4-[(2-pyridylamino)methyl]phenyl]-1H-pyrazol-3-yl]amino]pyrazine-2-carbonitrile]	0.37 nM	838 nM	100 nM	3 nM	–
COc1cc(C2CCN(C)CC2)c(F)cc1-c1cc(Nc2cnc(C#N)cn2)n[nH]1 [Example 32, 5-[[5-[5-fluoro-2-methoxy-4-(1-methyl-4-piperidyl)phenyl]-1H-pyrazol-3-yl]amino]pyrazine-2-carbonitrile]	0.26 nM	784 nM	300 nM	30 nM	–
COc1cc(O[C@H]2CCNC2)ccc1-c1cc(Nc2cnc(C#N)cn2)n[nH]1 [Example 33, 5-[[5-[2-methoxy-4-[(3S)-pyrrolidin-3-yl]oxy-phenyl]-1H-pyrazol-3-yl]amino]pyrazine-2-carbonitrile]	0.074 nM	62 nM	<30 nM	<3 nM	–
COc1cc(OCC2CCCN2)ccc1-c1cc(Nc2cnc(C#N)cn2)n[nH]1 (stereo not drawn) [Example 34, 5-[[5-[2-methoxy-4-(pyrrolidin-2-ylmethoxy)phenyl]-1H-pyrazol-3-yl]amino]pyrazine-2-carbonitrile]	0.14 nM	183 nM	100 nM	3 nM	–
COc1cc(OCC2CCCN2C)ccc1-c1cc(Nc2cnc(C#N)cn2)n[nH]1 (stereo not drawn) [Example 35, 5-[[5-[2-methoxy-4-[(1-methylpyrrolidin-2-yl)methoxy]phenyl]-1H-pyrazol-3-yl]amino]pyrazine-2-carbonitrile]	0.14 nM	217 nM	100 nM	3 nM	–
COc1cc(OCC2CCNCC2)ccc1-c1cc(Nc2cnc(C#N)cn2)n[nH]1 [Example 36, 5-[[5-[2-methoxy-4-(4-piperidylmethoxy)phenyl]-1H-pyrazol-3-yl]amino]pyrazine-2-carbonitrile]	0.095 nM	281 nM	100 nM	3 nM	–
COc1cc(CNC2CCN(C)CC2)ccc1-c1cc(Nc2cnc(C#N)cn2)n[nH]1 [Example 37, 5-[[5-[2-methoxy-4-[[(1-methyl-4-piperidyl)amino]methyl]phenyl]-1H-pyrazol-3-yl]amino]pyrazine-2-carbonitrile]	0.11 nM	182 nM	<100 nM	3 nM	–
CC(C)Oc1cc(C2CCN(C)CC2)ccc1-c1cc(Nc2cnc(C#N)cn2)n[nH]1 [Example 38, 5-[[5-[2-isopropoxy-4-(1-methyl-4-piperidyl)phenyl]-1H-pyrazol-3-yl]amino]pyrazine-2-carbonitrile]	0.88 nM	2750 nM	1000 nM	100 nM	–
COc1cc(C2CCCNC2)ccc1-c1cc(Nc2cnc(C#N)cn2)n[nH]1 (stereo not drawn) [Example 39, 5-[[5-[2-methoxy-4-(3-piperidyl)phenyl]-1H-pyrazol-3-yl]amino]pyrazine-2-carbonitrile]	0.18 nM	168 nM	30 nM	<3 nM	–
COc1cc(C2CCCN(C)C2)ccc1-c1cc(Nc2cnc(C#N)cn2)n[nH]1 (stereo not drawn) [Example 40, 5-[[5-[2-methoxy-4-(1-methyl-3-piperidyl)phenyl]-1H-pyrazol-3-yl]amino]pyrazine-2-carbonitrile]	0.14 nM	188 nM	30 nM	<3 nM	–
COc1cc(O[C@H]2CCN(C)C2)ccc1-c1cc(Nc2cnc(C#N)cn2)n[nH]1 [Example 42, 5-[[5-[2-methoxy-4-[(3S)-1-methylpyrrolidin-3-yl]oxy-phenyl]-1H-pyrazol-3-yl]amino]pyrazine-2-carbonitrile]	0.21 nM	73 nM	<30 nM	<3 nM	–
COc1cc(C2CCNCC2)ccc1-c1cc(Nc2cnc(Cl)cn2)n[nH]1 [Example 43, 5-chloro-N-[5-[2-methoxy-4-(4-piperidyl)phenyl]-1H-pyrazol-3-yl]pyrazin-2-amine]	0.73 nM	1330 nM	1000 nM	100 nM	–
COc1cc(C2CCN(C)CC2)ccc1-c1cc(Nc2cnc(Cl)cn2)n[nH]1 [Example 44, 5-chloro-N-[5-[2-methoxy-4-(1-methyl-4-piperidyl)phenyl]-1H-pyrazol-3-yl]pyrazin-2-amine]	0.69 nM	1260 nM	1000 nM	100 nM	–
COc1cc(N2CCNCC2)ccc1-c1cc(Nc2cnc(C#N)cn2)n[nH]1 [Example 46, 5-[[5-(2-methoxy-4-piperazin-1-yl-phenyl)-1H-pyrazol-3-yl]amino]pyrazine-2-carbonitrile]	–	442 nM	<30 nM	<3 nM	0.054 nM
COc1cc(C2C[C@H](C)N[C@@H](C)C2)ccc1-c1cc(Nc2cnc(C#N)cn2)n[nH]1 (stereo partly drawn) [Example 47, 5-[[5-[4-[(2S,6S)-2,6-dimethyl-4-piperidyl]-2-methoxy-phenyl]-1H-pyrazol-3-yl]amino]pyrazine-2-carbonitrile]	0.23 nM	235 nM	100 nM	3 nM	–
COc1cc(C2CCOCC2)ccc1-c1cc(Nc2cnc(C#N)cn2)n[nH]1 [Example 48, 5-[[5-(2-methoxy-4-tetrahydropyran-4-yl-phenyl)-1H-pyrazol-3-yl]amino]pyrazine-2-carbonitrile]	1.5 nM	2020 nM	1000 nM	100 nM	–
COc1cc(C2CCNCC2)ccc1-c1cc(Nc2ccc(C#N)c(F)c2)n[nH]1 [Example 49, 2-fluoro-4-[[5-[2-methoxy-4-(4-piperidyl)phenyl]-1H-pyrazol-3-yl]amino]benzonitrile]	36 nM	3570 nM	<3000 nM	1000 nM	–
COc1cc(C2CCNCC2)ccc1-c1cc(Nc2ccc(C#N)cn2)n[nH]1 [Example 50, 6-[[5-[2-methoxy-4-(4-piperidyl)phenyl]-1H-pyrazol-3-yl]amino]pyridine-3-carbonitrile]	20 nM	> 3000 nM	3000 nM	300 nM	–
N#Cc1cnc(Nc2cc(-c3ccc(C4CCNCC4)cc3F)[nH]n2)cn1 [Example 51, 5-[[5-[2-fluoro-4-(4-piperidyl)phenyl]-1H-pyrazol-3-yl]amino]pyrazine-2-carbonitrile]	6.3 nM	> 3000 nM	3000 nM	300 nM	–
COc1cc(C2CCNCC2)ccc1-c1cc(Nc2ccc(C#N)nc2)n[nH]1 [Example 52, 5-[[5-[2-methoxy-4-(4-piperidyl)phenyl]-1H-pyrazol-3-yl]amino]pyridine-2-carbonitrile]	0.46 nM	953 nM	300 nM	30 nM	–
CC(C)Oc1cc(C2CCNCC2)ccc1-c1cc(Nc2cnc(C#N)cn2)n[nH]1 [Example 53, 5-[[5-[2-isopropoxy-4-(4-piperidyl)phenyl]-1H-pyrazol-3-yl]amino]pyrazine-2-carbonitrile]	3.1 nM	2300 nM	1000 nM	100 nM	–
